Results taken from paper PMC10175918 (Communications Biology, 2023).
Read-outs that look alike come from different tables or passages of the source.

Experiments:
Assay in all cases: TGFα-shedding assay-based GPCR screening with chimeric Gα subunit proteins
Assay type in all cases: cell-based
[1] = biological target: T1, 348 GPCRs (Homo sapiens, UniProt Q9UNW8); conditions: G2A (GPR132); 10µM, Favipiravir 100μM
T1 construct: expressed in transfected cells; host or cells: HEK293A
T1 sequence (Q9UNW8 1-380): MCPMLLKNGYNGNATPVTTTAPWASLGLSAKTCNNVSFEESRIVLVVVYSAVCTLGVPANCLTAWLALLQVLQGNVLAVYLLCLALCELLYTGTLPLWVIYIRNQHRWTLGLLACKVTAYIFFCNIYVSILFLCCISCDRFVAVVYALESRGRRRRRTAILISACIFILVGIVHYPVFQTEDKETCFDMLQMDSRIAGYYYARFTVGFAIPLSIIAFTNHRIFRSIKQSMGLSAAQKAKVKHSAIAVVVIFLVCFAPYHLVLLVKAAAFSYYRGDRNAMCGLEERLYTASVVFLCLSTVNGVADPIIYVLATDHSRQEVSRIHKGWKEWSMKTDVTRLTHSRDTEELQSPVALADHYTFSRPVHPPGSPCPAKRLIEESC

[2] = biological target: T2, 348 GPCRs (Homo sapiens, UniProt Q8TCW9); conditions: 10µM
T2 construct: expressed in transfected cells; host or cells: HEK293A

[3] = biological target: T3, 348 GPCRs (Homo sapiens, UniProt P50391); conditions: 10µM, Favipiravir 100μM
T3 construct: expressed in transfected cells; host or cells: HEK293A

[4] = biological target: T4, 348 GPCRs (Homo sapiens, UniProt P20309); conditions: 10µM
T4 construct: expressed in transfected cells; host or cells: HEK293A

[5] = biological target: T5, 348 GPCRs (Homo sapiens, UniProt P55085); conditions: 10µM, Favipiravir 100μM
T5 construct: expressed in transfected cells; host or cells: HEK293A
T5 sequence (P55085 26-397): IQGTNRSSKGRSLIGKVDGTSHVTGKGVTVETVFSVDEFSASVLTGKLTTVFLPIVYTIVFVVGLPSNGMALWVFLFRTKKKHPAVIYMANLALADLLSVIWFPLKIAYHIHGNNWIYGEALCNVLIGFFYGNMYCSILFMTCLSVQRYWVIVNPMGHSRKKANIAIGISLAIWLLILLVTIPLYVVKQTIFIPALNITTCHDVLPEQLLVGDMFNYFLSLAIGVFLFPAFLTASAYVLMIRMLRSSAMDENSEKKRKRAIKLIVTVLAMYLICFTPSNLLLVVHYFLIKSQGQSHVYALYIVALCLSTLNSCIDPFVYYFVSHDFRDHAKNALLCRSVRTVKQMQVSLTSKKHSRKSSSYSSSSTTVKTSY

[6] = biological target: T6, 348 GPCRs (Homo sapiens, UniProt P30968); conditions: 10µM, Favipiravir 100μM
T6 construct: expressed in transfected cells; host or cells: HEK293A
T6 sequence (P30968 1-328): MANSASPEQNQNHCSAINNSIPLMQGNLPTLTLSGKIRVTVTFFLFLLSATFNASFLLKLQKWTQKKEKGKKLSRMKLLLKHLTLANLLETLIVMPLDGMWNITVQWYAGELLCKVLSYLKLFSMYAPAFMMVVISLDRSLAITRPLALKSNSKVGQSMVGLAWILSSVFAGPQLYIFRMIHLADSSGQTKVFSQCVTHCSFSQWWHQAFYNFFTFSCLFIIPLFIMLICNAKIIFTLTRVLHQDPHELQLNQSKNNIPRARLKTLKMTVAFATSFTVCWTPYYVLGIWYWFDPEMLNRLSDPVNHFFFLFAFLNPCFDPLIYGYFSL

[7] = biological target: T7, 348 GPCRs (Homo sapiens, UniProt O14842); conditions: 10µM, Favipiravir 100μM
T7 construct: expressed in transfected cells; host or cells: HEK293A

[8] = biological target: T8, 348 GPCRs (Homo sapiens, UniProt Q8TDS7); conditions: 10µM, Favipiravir 100μM
T8 construct: expressed in transfected cells; host or cells: HEK293A

[9] = biological target: T9, 348 GPCRs (Homo sapiens, UniProt P30550); conditions: 10µM, Favipiravir 100μM
T9 construct: expressed in transfected cells; host or cells: HEK293A

[10] = biological target: T10, 348 GPCRs (Homo sapiens, UniProt P41594); conditions: 10µM, Favipiravir 100μM
T10 construct: expressed in transfected cells; host or cells: HEK293A

[11] = biological target: T11, 348 GPCRs (Homo sapiens, UniProt Q7Z602); conditions: 10µM, Favipiravir 100μM
T11 construct: expressed in transfected cells; host or cells: HEK293A

[12] = biological target: 348 GPCRs (Homo sapiens, UniProt P30989); conditions: 10µM, Favipiravir 100μM
[13] = biological target: T12, 348 GPCRs (Homo sapiens, UniProt P49019); conditions: 10µM, Favipiravir 100μM
T12 construct: expressed in transfected cells; host or cells: HEK293A

[14] = biological target: T13, 348 GPCRs (Homo sapiens, UniProt P51677); conditions: 10µM, Favipiravir 100μM
T13 construct: expressed in transfected cells; host or cells: HEK293A
T13 sequence (P51677 1-355): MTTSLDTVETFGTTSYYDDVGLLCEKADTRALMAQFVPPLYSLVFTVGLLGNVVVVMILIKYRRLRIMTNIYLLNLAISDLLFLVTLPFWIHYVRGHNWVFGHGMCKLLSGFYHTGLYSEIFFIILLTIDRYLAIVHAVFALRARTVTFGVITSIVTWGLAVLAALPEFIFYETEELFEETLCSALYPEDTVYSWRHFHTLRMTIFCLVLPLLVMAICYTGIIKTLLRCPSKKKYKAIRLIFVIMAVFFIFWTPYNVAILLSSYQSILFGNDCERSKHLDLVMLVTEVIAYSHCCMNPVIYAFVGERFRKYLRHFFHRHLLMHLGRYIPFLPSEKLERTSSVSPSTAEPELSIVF

[15] = read-out: % GPCR activation compared to TPA, GPCR PK1 (prokineticin receptor 1)
[16] = read-out: % GPCR activation compared to TPA, NPY4R (neuropeptide Y receptor Y4)
[17] = read-out: % GPCR activation compared to TPA, GPCR M3 (Muscarinic acetylcholine receptor M3)
[18] = read-out: % GPCR activation compared to TPA, F2RL1 (coagulation factor II (thrombin) receptor-like 1)
[19] = read-out: % GPCR activation compared to TPA, GNRHR (gonadotropin releasing hormone receptor)
[20] = read-out: % GPCR activation compared to TPA, FFA1 (free fatty acid receptor 1)
[21] = read-out: % GPCR activation compared to TPA, MRGPRD (MAS-related GPR, member D)
[22] = read-out: % GPCR activation compared to TPA, GRPR (gastrin-releasing peptide receptor)
[23] = read-out: % GPCR activation compared to TPA, GRM5 (glutamate receptor, metabotropic 5)
[24] = read-out: % GPCR activation compared to TPA, GPR141 (G Protein-Coupled Receptor 141)
[25] = read-out: % GPCR activation compared to TPA, NTSR1(CO) (neurotensin receptor 1)
[26] = read-out: % GPCR activation compared to TPA, HCA3 (hydroxycarboxylic Acid Receptor 3)
[27] = read-out: % GPCR activation compared to TPA, CCR3 (C-C motif chemokine receptor 3)

T8 sequence (Q8TDS7 whole entry): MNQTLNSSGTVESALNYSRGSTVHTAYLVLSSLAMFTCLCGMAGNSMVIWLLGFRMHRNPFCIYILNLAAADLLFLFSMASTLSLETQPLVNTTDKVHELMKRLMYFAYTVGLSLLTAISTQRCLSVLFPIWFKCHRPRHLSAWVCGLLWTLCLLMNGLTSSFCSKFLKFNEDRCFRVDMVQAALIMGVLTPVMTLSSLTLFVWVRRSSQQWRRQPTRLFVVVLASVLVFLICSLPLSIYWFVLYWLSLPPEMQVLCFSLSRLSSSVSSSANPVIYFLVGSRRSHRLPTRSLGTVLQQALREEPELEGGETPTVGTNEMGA
T12 sequence (P49019 whole entry): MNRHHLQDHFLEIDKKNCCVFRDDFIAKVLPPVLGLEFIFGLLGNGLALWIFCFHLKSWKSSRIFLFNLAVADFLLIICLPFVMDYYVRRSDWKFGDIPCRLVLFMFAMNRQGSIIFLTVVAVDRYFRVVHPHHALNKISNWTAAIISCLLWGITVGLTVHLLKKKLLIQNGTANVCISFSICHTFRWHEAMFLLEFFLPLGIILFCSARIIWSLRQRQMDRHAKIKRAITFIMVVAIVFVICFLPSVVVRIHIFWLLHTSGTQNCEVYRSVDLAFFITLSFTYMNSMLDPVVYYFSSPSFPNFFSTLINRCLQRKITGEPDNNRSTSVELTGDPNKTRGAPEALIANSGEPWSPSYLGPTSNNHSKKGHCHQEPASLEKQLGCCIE
Sequence of 348 GPCRs (Homo sapiens, UniProt P30989) (P30989 whole entry): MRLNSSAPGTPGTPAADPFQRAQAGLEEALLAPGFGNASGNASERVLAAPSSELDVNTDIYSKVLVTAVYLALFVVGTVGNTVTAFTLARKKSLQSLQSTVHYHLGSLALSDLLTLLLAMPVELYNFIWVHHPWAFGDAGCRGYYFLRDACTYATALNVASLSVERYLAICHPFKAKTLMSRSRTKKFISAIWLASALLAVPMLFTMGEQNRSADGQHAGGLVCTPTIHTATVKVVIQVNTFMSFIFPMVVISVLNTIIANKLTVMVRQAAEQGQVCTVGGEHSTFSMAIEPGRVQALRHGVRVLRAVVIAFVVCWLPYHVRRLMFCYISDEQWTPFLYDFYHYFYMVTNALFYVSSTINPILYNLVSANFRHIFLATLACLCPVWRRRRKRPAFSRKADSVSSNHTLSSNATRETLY
T2 sequence (Q8TCW9 whole entry): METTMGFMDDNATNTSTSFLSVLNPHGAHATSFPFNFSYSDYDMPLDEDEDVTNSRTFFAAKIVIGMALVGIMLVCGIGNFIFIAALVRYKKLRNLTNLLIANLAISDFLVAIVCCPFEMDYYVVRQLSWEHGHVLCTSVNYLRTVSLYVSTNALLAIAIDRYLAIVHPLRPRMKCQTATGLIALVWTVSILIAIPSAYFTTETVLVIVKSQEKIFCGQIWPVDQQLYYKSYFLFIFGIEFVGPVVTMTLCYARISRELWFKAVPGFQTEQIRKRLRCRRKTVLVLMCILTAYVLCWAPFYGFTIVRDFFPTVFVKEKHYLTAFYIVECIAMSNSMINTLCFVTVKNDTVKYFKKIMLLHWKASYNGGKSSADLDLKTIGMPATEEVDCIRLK
T11 sequence (Q7Z602 whole entry): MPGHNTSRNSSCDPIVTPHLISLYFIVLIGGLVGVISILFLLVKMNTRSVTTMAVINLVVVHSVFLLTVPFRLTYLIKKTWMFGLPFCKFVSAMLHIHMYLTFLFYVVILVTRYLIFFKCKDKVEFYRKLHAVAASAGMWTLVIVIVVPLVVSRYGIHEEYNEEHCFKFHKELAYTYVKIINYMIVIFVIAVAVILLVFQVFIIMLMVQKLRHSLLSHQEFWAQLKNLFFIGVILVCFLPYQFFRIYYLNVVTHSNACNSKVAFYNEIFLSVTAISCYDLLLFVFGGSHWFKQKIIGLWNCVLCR
T7 sequence (O14842 whole entry): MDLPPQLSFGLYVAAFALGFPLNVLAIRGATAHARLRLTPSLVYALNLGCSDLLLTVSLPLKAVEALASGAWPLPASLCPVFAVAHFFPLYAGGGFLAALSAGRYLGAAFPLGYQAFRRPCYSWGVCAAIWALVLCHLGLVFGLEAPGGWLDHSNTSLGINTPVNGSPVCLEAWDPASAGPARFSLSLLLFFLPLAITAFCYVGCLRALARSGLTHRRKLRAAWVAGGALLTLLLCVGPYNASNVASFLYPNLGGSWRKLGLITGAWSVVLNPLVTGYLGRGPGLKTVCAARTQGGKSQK
T3 sequence (P50391 whole entry): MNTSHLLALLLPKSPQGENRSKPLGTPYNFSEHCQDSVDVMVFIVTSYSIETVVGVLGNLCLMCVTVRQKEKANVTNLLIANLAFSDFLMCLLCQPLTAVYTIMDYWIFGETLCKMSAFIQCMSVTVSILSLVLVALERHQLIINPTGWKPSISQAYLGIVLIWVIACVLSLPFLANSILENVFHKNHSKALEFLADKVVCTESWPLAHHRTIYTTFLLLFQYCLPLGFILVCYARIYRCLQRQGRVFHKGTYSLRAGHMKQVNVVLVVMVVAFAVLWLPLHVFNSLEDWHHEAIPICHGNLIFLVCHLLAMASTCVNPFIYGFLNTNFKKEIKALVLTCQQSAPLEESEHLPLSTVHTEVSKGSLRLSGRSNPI
T10 sequence (P41594 21-1212): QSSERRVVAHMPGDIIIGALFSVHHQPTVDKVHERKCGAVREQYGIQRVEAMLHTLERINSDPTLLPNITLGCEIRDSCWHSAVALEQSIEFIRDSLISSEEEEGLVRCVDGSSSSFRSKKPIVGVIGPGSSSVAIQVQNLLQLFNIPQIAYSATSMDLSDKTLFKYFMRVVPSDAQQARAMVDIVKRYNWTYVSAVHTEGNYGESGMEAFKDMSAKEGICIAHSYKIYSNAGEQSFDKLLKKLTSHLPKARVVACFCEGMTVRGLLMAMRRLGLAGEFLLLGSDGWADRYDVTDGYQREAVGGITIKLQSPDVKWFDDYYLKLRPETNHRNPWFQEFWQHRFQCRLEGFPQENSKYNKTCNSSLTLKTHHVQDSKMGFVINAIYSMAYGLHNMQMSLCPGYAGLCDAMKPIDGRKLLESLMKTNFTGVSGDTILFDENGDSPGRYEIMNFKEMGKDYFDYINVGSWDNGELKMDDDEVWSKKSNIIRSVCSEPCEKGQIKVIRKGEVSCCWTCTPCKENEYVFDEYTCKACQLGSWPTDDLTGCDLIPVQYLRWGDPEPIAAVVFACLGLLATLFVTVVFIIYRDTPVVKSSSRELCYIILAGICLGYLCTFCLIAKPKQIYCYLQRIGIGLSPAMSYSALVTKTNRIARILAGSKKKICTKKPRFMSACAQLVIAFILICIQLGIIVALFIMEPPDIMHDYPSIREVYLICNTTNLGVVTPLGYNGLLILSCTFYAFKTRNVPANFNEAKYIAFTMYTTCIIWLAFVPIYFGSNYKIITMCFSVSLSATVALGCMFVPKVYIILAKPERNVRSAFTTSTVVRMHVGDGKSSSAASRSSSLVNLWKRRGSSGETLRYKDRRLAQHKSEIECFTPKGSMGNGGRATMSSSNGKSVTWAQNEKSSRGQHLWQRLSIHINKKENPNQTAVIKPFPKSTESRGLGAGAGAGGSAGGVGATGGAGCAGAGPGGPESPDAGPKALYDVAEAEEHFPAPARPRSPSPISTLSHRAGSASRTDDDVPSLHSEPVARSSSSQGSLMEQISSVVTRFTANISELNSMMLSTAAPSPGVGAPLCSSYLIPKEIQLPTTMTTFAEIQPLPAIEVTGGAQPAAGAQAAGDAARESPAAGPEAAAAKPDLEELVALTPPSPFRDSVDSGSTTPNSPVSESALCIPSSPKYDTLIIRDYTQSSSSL
T4 sequence (P20309 whole entry): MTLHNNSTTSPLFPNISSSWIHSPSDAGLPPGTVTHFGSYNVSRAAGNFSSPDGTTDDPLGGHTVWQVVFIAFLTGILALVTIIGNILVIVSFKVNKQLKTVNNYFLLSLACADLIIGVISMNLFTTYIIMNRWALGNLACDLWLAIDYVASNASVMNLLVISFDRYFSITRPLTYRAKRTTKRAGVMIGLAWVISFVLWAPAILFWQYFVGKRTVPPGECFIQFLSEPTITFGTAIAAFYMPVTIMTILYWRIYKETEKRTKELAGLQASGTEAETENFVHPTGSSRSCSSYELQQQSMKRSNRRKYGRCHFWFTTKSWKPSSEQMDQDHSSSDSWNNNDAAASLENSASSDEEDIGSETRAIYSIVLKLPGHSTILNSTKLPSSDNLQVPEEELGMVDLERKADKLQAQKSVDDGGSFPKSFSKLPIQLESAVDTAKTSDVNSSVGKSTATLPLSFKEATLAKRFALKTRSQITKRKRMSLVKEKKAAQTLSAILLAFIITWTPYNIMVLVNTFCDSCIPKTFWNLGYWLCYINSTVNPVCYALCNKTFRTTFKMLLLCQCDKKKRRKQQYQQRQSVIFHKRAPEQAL
T9 sequence (P30550 whole entry): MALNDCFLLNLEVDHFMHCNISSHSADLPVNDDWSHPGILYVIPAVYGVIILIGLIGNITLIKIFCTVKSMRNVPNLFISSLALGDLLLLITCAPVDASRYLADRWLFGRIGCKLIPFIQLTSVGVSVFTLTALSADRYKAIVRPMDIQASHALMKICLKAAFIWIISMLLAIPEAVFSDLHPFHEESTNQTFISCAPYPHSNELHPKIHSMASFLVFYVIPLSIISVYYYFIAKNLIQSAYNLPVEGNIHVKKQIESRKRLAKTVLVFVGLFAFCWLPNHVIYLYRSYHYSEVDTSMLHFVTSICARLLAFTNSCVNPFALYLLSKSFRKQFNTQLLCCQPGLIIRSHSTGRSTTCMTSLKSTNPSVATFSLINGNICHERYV

SMILES	% GPCR activation compared to TPA [1] [%]	activation at 10 µM [2, 15] [%]	activation at 100 µM [3, 16] [%]	activation at 10 µM [4, 17] [%]	activation at 10 µM [5, 18] [%]	activation at 10 µM [6, 19] [%]	activation at 10 µM [7, 20] [%]	activation at 100 µM [8, 21] [%]	activation at 10 µM [9, 22] [%]	activation at 10 µM [10, 23] [%]	activation at 100 µM [11, 24] [%]	activation at 100 µM [12, 25] [%]	activation at 100 µM [13, 26] [%]	activation at 100 µM [14, 27] [%]	further results
CC(C)C(=O)OC[C@H]1O[C@@H](n2ccc(NO)nc2=O)[C@H](O)[C@@H]1O [molnupiravir]	-1.8016	–	–	–	–	–	–	–	–	–	–	–	–	–	activation at 10 µM ([2]; GPCR PK1 (prokineticin receptor 1), read-out: % GPCR activation compared to TPA): -3.53%; activation at 100 µM ([3]; NPY4R (neuropeptide Y receptor Y4), read-out: % GPCR activation compared to TPA): -1.31%; activation at 10 µM ([4]; GPCR M3 (Muscarinic acetylcholine receptor M3), read-out: % GPCR activation compared to TPA): -0.147%; activation at 10 µM ([5]; F2RL1 (coagulation factor II (thrombin) receptor-like 1), read-out: % GPCR activation compared to TPA): -1.8%; activation at 10 µM ([6]; GNRHR (gonadotropin releasing hormone receptor), read-out: % GPCR activation compared to TPA): -1.32%; activation at 10 µM ([7]; FFA1 (free fatty acid receptor 1), read-out: % GPCR activation compared to TPA): -2.86%; activation at 100 µM ([8]; MRGPRD (MAS-related GPR, member D), read-out: % GPCR activation compared to TPA): -3.12%; activation at 10 µM ([9]; GRPR (gastrin-releasing peptide receptor), read-out: % GPCR activation compared to TPA): -3.58%; activation at 10 µM ([10]; GRM5 (glutamate receptor, metabotropic 5), read-out: % GPCR activation compared to TPA): 0.891%; activation at 100 µM ([11]; GPR141 (G Protein-Coupled Receptor 141), read-out: % GPCR activation compared to TPA): -1.57%; activation at 100 µM ([12]; NTSR1(CO) (neurotensin receptor 1), read-out: % GPCR activation compared to TPA): -6.1%; activation at 100 µM ([13]; HCA3 (hydroxycarboxylic Acid Receptor 3), read-out: % GPCR activation compared to TPA): -2.64%; activation at 100 µM ([14]; CCR3 (C-C motif chemokine receptor 3), read-out: % GPCR activation compared to TPA): -0.741%
CCC(CC)COC(=O)[C@H](C)N[P@](=O)(OC[C@H]1O[C@@](C#N)(c2ccc3c(N)ncnn23)[C@H](O)[C@@H]1O)Oc1ccccc1 [remdesivir]	10.99	-3.33	-1.2	2.85	-1.25	-0.876	-6.96	0.905	-2.02	2.34	-1.45	-1.56	-1.75	7.61	–
CC(C)OC(=O)[C@H](C)N[P@](=O)(OC[C@H]1O[C@@H](n2ccc(=O)[nH]c2=O)[C@](C)(F)[C@@H]1O)Oc1ccccc1 [sofosbuvir]	-1.375	-1.13	-0.849	-1.32	0.0736	-0.976	-1.47	4.12	-1.24	3.55	-0.925	-8.04	-2.7	-1.65	–
